Measured values from publication PMC8509428, “The Phenoxyalkyltriazine Antagonists for 5-HT6 Receptor with Promising Procognitive and Pharmacokinetic Properties In Vivo in Search for a Novel Therapeutic Approach to Dementia Diseases” (International Journal of Molecular Sciences, 2021).
Values joined by “and” are separate entries in the source; they are usually repeats but may differ in a detail not shown here. Equal values may be shown once. Read-outs that look alike come from different tables or passages of the source.

Columns and labels:
[1] = Metabolic stability in rat liver microsomes; assay type: in vitro ADME
Procedure: The tested 5-HT6R ligands (50 µM) were incubated in the presence of RLMs (1 mg/mL) in 10 mM Tris–HCl buffer (37 °C). The LC/MS analyses with additional MS ion fragmentation of the products and substrates were performed to determine the most probable structures of 5-HT6R ligands’ metabolites. LC/MS Waters ACQUITY™ TQD system with the TQ Detector (Waters, Milford, CT, USA).

hepatoma HepG2 cell line = experiment: Hepatotoxicity, HepG2 viability (MTS); assay type: cell-based; settings: 0.1–100 µM, 72 h
Procedure: Cells were grown under previously described conditions. […] The cells’ viability was determined by CellTiter 96® AQueous Non-Radioactive Cell Proliferation Assay (MTS), which was purchased from Promega® (Madison, WI, USA). The absorbance was measured using a microplate reader EnSpire (PerkinElmer, Waltham, MA USA) at 490 nm. All compounds were tested in quadruplicate.

[2] = Pharmacokinetics and tissue distribution in rats; assay type: in vivo, rat; settings: for Kp: intraperitoneal
Procedure: To assess pharmacokinetic profile and tissue penetration of 2 and 3, the male Wistar rats were a single intraperitoneal (i.p.) injected with these compounds dissolved in tween (vehicle volume 1 mL/kg) at a dose of 0.3 mg/kg, determined in behavioral studies. The animals were killed by decapitation under deep anesthesia (i.p. injection of 50 mg/kg ketamine and 7.5 mg/kg xylazine) at 5, 15, 30, 60, 120 and 240 min after compounds administration (four animals per time point) and blood samples (approximately 5–6 mL) were collected into tubes. Moreover, five tissues (i.e., brain, heart, lungs, kidneys and liver) were harvested, rinsed with cold saline, and the wet weights determined. Blood was allowed to clot for 15–20 min at room temperature and then centrifuged (3000 rpm for 10 min). The obtained serum and tissues were stored frozen at −80 °C until analysis.
The concentrations of both test compounds in serum and tissue homogenates were measured by a reverse-phase high-performance liquid chromatography method with ultraviolet detection (HPLC/UV). […] The mobile phase consisted of methanol/10 mM potassium dihydrogen phosphate buffer, pH 4.6/acetonitrile (51/40/9, v/v/v). The isocratic separation was performed at 1.0 mL/min constant flow-rate with column temperature maintained at 38 °C. The detection wavelength was set at 206 nm for 2 and at 215 nm for 3. […] EZChrome Elite v. 3.3.2 software (VWR, Darmstadt, Germany) was used for data acquisition.
Before analysis, tissue samples were thawed, placed in four volumes (w/v) of phosphate-buffered saline (PBS, pH 7.4) and homogenized using a MICCRA D-1 homogenizer (ART Prozess- & Labortechnik GmbH & Co., Heitersheim, Germany). To isolate 2 or 3, 500 µL of rat serum or tissue homogenate containing this compound were mixed with a 20-μL volume of IS solution (50 ng/mL or 200 ng/g in methanol). As an IS for compound 2 quantification, compound 3 was used and vice versa.
The samples were alkalized with 50 μL of 4 M sodium hydroxide solution, vortex-mixed, and extracted with 1 mL of ethyl acetate/hexane (30/70, v/v) mixture on a shaker (VXR Vibrax, IKA, Legnica, Poland) for 20 min. After centrifugation (Eppendorf, Mini Spin Plus, Hamburg, Germany), the organic layers were transferred into new tubes containing 100 μL of methanol and 0.1 M sulfuric acid (10/90, v/v) mixture. Then, the samples were shaken and centrifuged again. Finally, 20–90 μL of each acidic layer was injected into the HPLC system.
Other pharmacokinetic parameters were determined on subjecting the concentration–time data to non-compartmental analysis using Phoenix WinNonlin 8.2 software (Pharsight Corporation, a Certara Company, Princeton, NJ, USA).

rats = experiment: Elevated plus-maze (EPM) test; assay type: in vivo, rat; settings: for Open Arms % of entries / Open Arms % of time / Open Arms Distance / Open Arms Entries / Open Arms Time: mean ± SEM
Description: The testing procedure was based on a method described by. Plus-maze apparatus (an automated device produced by Campden Instruments Ltd. (Leicestershire, UK) made of durable, high density, non-porous black plastic, elevated to a height of 50 cm, consisted of two open arms (50 × 10 cm) and two closed arms (50 × 10 cm, and 30 cm high walls), arranged so that the two arms of each type were opposite each other. The floor of the plus-maze was made of infrared transparent material what means that there are no visible sensors. Plus-maze apparatus was connected to PC software by control chassis. The experiments were conducted in a darkened room, only the center of the maze was illuminated with low-intensity light (30 lux measured on the maze level). Each rat was gently placed in the center of the plus-maze, facing one of the closed arms, immediately after a 5-min adaptation period in a plastic black box (60 × 60 × 35 cm), to increase the overall activity in the EPM. During a 5-min test period, automated Motor Monitor System recorded the number of entries into the closed and open arms and the time spent in either type of arms. The device counted an effective arm-entry when the four paws of a rat were into any arm. The maze was thoroughly cleaned after each trial. The EPM test is an “unconditional” anxiety-like test based on rodents’ natural aversion to heights and open space.

human 5-HT6R = settings: ± SD; read-out: Ki 5-HT6 (converted); cited from earlier work
[3] = estimated from MS spectra supported by in silico data
[4] = rat serum, 0.3 mg/kg i.p., 0.3 mg/kg

CCC(Oc1cccc(Cl)c1Cl)c1nc(N)nc(N2CCN(C)CC2)n1 (racemic) [Compound 2, (RS)-4-[1-(2,3-dichlorophenoxy)propyl]-6-(4-methylpiperazin-1-yl)-1,3,5-triazin-2-amine]
parent compound remaining in the reaction mixture (Area%) ([1]; RLMs, 120 min incubation): 80% | parent structure biotransformed ([1]; RLMs, 120 min incubation): 20% | Metabolic Pathway, metabolite M1 [1, 3]: hydroxylation | Metabolic Pathway, metabolite M2 [1, 3]: hydroxylation | Metabolic Pathway, metabolite M3 [1, 3]: demethylation | hepatotoxicity effect, HepG2 viability (hepatoma HepG2 cell line): no hepatotoxicity effect | Kp, brain ([2]; AUC0-t tissue / AUC0-t serum): 2.69 | Kp, kidneys ([2]; AUC0-t tissue / AUC0-t serum): 16.52 | MRT ([2]; male, Wistar, ip, rat serum, 0.3 mg/kg i.p.): 90.1 min | Kp ([2]; male, Wistar, rat, brain (vs serum), 0.3 mg/kg, AUC0-t tissue / AUC0-t serum, read-out: Kp, brain): 2.03 | half-life ([2]; male, Wistar, rat, brain, ip, 0.3 mg/kg, rat, 0.3 mg/kg i.p., read-out: elimination half-life, brain tissue): 149 min | Kp ([2]; male, Wistar, rat, heart / serum, 0.3 mg/kg, AUC0-t tissue / AUC0-t serum, read-out: Kp, heart): 2.3 | Tmax ([2]; male, Wistar, rat, heart, ip, 0.3 mg/kg, rat, 0.3 mg/kg i.p., read-out: Tmax, heart (converted)): 5 min | Kp ([2]; male, Wistar, rat, kidneys (vs serum), 0.3 mg/kg, AUC0-t tissue / AUC0-t serum, read-out: Kp, kidneys): 16.5 | Tmax ([2]; male, Wistar, rat, kidneys, ip, 0.3 mg/kg, rat, 0.3 mg/kg i.p., read-out: Tmax, kidneys (converted)): 15 min | Kp ([2]; male, Wistar, rat, liver (vs serum), 0.3 mg/kg, AUC0-t tissue / AUC0-t serum, read-out: Kp, liver): 14.4 | Tmax ([2]; male, Wistar, rat, liver, ip, 0.3 mg/kg, rat, 0.3 mg/kg i.p., read-out: Tmax, liver (converted)): 15 min | Kp ([2]; male, Wistar, rat, lungs / serum, 0.3 mg/kg, AUC0-t tissue / AUC0-t serum, read-out: Kp, lungs): 8.54 | Tmax ([2]; male, Wistar, rat, lungs, ip, 0.3 mg/kg, rat, 0.3 mg/kg i.p., read-out: Tmax, lungs (converted)): 5 min | CL/F ([2]; male, Wistar, rat, serum, ip, 0.3 mg/kg, rat serum, 0.3 mg/kg i.p., read-out: CL/F (converted)): 515 mL/min/kg | Tmax ([2]; male, Wistar, rat, serum, ip, 0.3 mg/kg, rat, 0.3 mg/kg i.p., read-out: Tmax, serum (converted)): 15 min | half-life ([2]; male, Wistar, rat, serum, ip, 0.3 mg/kg, rat, 0.3 mg/kg i.p., read-out: t1/2λz, serum): 116 min | Cmax ([2]; male, Wistar, serum, ip, rat, 0.3 mg/kg i.p., mean ± SD): 5.2 ± 2.24 ng/mL | AUC(0-t) ([2]; male, Wistar, serum, ip, rat, 0.3 mg/kg i.p., mean ± SD, read-out: AUC0-t, serum (converted)): 7.56 ng·h/mL | AUC(0-inf) ([2]; male, Wistar, serum, ip, rat, 0.3 mg/kg i.p., mean ± SD, read-out: AUC0-∞, serum (converted)): 8.85 ng·h/mL | CL/F [2, 4]: 514.5 ± 165 mL/min/kg | Vz/F [2, 4]: 81 L/kg and 80.99 ^a ± 18.22 L/kg | AUC0-t, brain ([2]; rat, 0.3 mg/kg i.p.): 1219.94 ± 368.79 ng·min/mL or ng·min/g | AUC0-t, liver ([2]; rat, 0.3 mg/kg i.p.): 6523.60 ± 4997.28 ng·min/mL or ng·min/g | AUC0-t, lungs ([2]; rat, 0.3 mg/kg i.p.): 3870.66 ± 680.07 ng·min/mL or ng·min/g | Cmax, heart ([2]; rat, 0.3 mg/kg i.p.): 8.90 ± 8.15 ng/mL or ng/g | Cmax, kidneys ([2]; rat, 0.3 mg/kg i.p.): 65.73 ± 34.94 ng/mL or ng/g | Cmax, liver ([2]; rat, 0.3 mg/kg i.p.): 115.22 ± 93.46 ng/mL or ng/g | Cmax, lungs ([2]; rat, 0.3 mg/kg i.p.): 54.20 ± 21.61 ng/mL or ng/g | AUC0-t, heart ([2]; rat, 0.3 mg/kg i.p., 0.3 mg/kg): 1040.7 ng·min/mL or ng·min/g and 1040.74 ± 448.65 ng·min/mL or ng·min/g | AUC0-t, kidneys ([2]; rat, 0.3 mg/kg i.p., 0.3 mg/kg): 7488.1 ng·min/mL or ng·min/g and 7488.06 ± 4372.92 ng·min/mL or ng·min/g | Cmax, brain ([2]; rat, 0.3 mg/kg i.p., 0.3 mg/kg): 11.63 ± 3.13 ng/mL or ng/g | t1/2λz, serum ([2]; rat, 0.3 mg/kg i.p., 0.3 mg/kg): 116 min and 116.18 ^a ± 17.14 min | Open Arms % of entries (rats; 0.3 mg/kg i.p.): 23.97 ± 4.97% | Open Arms % of time (rats; 0.3 mg/kg i.p.): 14.85 ± 3.30% | Open Arms Distance (rats; 0.3 mg/kg i.p.): 423 ± 87 cm | Open Arms Entries (rats; 0.3 mg/kg i.p.): 6.50 ± 1.60 | Open Arms Time (rats; 0.3 mg/kg i.p.): 36.85 ± 8.90 s | Open Arms % of entries (rats; 1 mg/kg i.p.): 26.53 ± 3.69% | Open Arms % of time (rats; 1 mg/kg i.p.): 10.10 ± 1.20% | Open Arms Distance (rats; 1 mg/kg i.p.): 279 ± 45 cm | Open Arms Entries (rats; 1 mg/kg i.p.): 5.86 ± 0.90 | Open Arms Time (rats; 1 mg/kg i.p.): 24.75 ± 3.19 s | increase of distance travelled in the open arms vs vehicle (rats; 3 mg/kg i.p.): 134% | increase of number of open-arm entries vs vehicle (rats; 3 mg/kg i.p.): 160% | increase of percentage of time spent in open arms vs vehicle (rats; 3 mg/kg i.p.): 137% | increase of time spent in the open arms vs vehicle (rats; 3 mg/kg i.p.): 120% | Open Arms % of entries (rats; 3 mg/kg i.p.): 41.89 ± 3.37% | Open Arms % of time (rats; 3 mg/kg i.p.): 30.00 ± 3.60% | Open Arms Distance (rats; 3 mg/kg i.p.): 914 ± 126 cm | Open Arms Entries (rats; 3 mg/kg i.p.): 13.00 ± 2.30 | Open Arms Time (rats; 3 mg/kg i.p.): 72.23 ± 7.30 s | increase of percentage of entries into open arms vs vehicle (rats; 3 mg/kg i.p., not significant): 68% | dose with anxiolytic-like activity in EPM test (rats; i.p.): 3 mg/kg | Ki (human 5-HT6R): 6 ± 2 nM
